Source: patent publication US11446299B2, “Carbazole EHop-016 derivatives as anticancer and anti-migratory agents” (UNIVERSITY OF PUERTO RICO, priority 2017, dated 2022)
“Also recorded” adds a separate entry of the source.

Experiments:
[1] = test system: MDA-MB-231 and MDA-MB435 metastatic breast cancer cell lines; test: Wound healing assay of HV-107 and HV-118; type: cell-based; details: Homo sapiens, 24 h, read-out: inhibition of cell migration
Description: FIG. 17 (A-B). Effect of HV-107 and HV-118 on cell migration. Wounds were created on confluent monolayers of MDA-MB-231 or MDA-MB-435 human metastatic breast cancer cells. Immediately after, cells were treated for 24 h with FIG. 17A. 0, 1000, or 2000 nM of HV-107; and FIG. 17B. 0, 100, or 200 nM HV-118. The distance traveled by HV-107 and HV-118 treated cells that migrated to close the wound was quantified relative to the distance traveled by control-treated cells. N=4-7; error bars represent ±SEM; * p≤0.05.
Finally, wound healing assays were performed to assess the effects of HV-107 and HV-118 on metastatic breast cancer cell migration.

Akt = Akt phosphorylation by western blot; type: cell-based, human; details: 24 h
Description: FIG. 16 (A-D). Inhibition of pAKT by HV-107 and HV-118. FIG. 16 A, C. MDA-MB-231 and FIG. 16 B, D. MDA-MB-435 human metastatic breast cancer cells were treated for 24 h with 0, 250, 500 or 1000 nM HV-107, 100 or 200 nM HV-118. After treatment, total protein was extracted, and equal amounts of proteins were western blotted for total and phosphorylated Akt (pAkt). Positive bands were quantified using image J. N=4-6; error bars represent t SEM; * p≤0.05.
(§1) Subsequently, the effects of HV-107 and HV-118 were evaluated in cell survival and cell migration, known Rac-regulated cell functions relevant for cancer progression. The effects of HV-107 and HV-118 on cancer cell survival were determined by measuring the levels of active caspase 3 in MDA-MB-231 and MDA-MB-435 metastatic breast cancer cells after treatment with HV-107 at 500 and 1000 nM, or HV-118 at 100 and 200 nM for 48-72 h. After 48 h, HV-107 caused a significant 1.4-1.5 fold increase in caspase 3 activity in MDA-MB-231 (at 500 and 1000 nM) and MDA-MB-435 (at 1000 nM) cells. […] The effects of both compounds were also examined in the activity of Akt, an important kinase that promotes survival signaling, is frequently hyperactivated in malignant cancers, and can be regulated by Rac. Because Akt is activated by phosphorylation events, the effects of HV-107 and HV-118 were analyzed in Akt phosphorylation by western blot (FIG. 16 (A-D)).

caspase 3 = test: Caspase-Glo 3/7 assay; type: cell-based, human
Description: FIG. 15 (A-D). Effect of HV-107 and HV-118 on Caspase 3/7 activity. FIG. 15 A, C. MDA-MB-231 and FIG. 15 B, D. MDA-MB-435 human metastatic breast cancer cells were treated for 48 or 72 h with 0, 500 or 1000 nM HV-107, 100 or 200 nM HV-118. Caspase 3/7 activity was measured using the Caspase-Glo 3/7 Assay (Promega, Corp.) as per manufacturer's instruction. N=4: error bars represent ±SEM; * p≤0.05.
as §1

[2] = test system: MDA-MB-231 metastatic breast cancer cells; test: Cell viability, CellTiter 96 AQueous One Solution Cell Proliferation Assay; type: cell-based, human; details: HV-107 24 or 48 h, HV-118 48 h
Description: (§2) FIG. 7. Effect of HV-107 on cell viability. Cells were treated with vehicle control (0.5% DMSO) or varying concentrations of HV-107 (250-6000 nM) for 48 h. Cell viability was measured using the CellTiter 96® AQueous One Solution Cell Proliferation Assay from Promega, as per manufacturer's instruction. Relative cell viability is presented for non-cancerous mammary epithelial cells (MCF10A) or metastatic breast cancer cells MDA-MB-231 or MDA-MB-435. N=3-4, each with three technical replicates; Error bars represent ±SEM; * p≤0.05.
(§3) FIG. 9. Effect of HV-118 on cell viability. Cells were treated with vehicle control (0.5% DMSO) or varying concentrations of HV-118 (10-500 nM) for 48 h. Cell viability was measured using the CellTiter 96® AQueous One Solution Cell Proliferation Assay from Promega, as per manufacturer's instruction. Relative cell viability is presented for human non-cancerous mammary epithelial cells (MCF10A) or human metastatic breast cancer cells MDA-MB-231 or MDA-MB-435. N=3, each with three technical replicates; error bars represent ±SEM; * p≤0.05.
(§4) Cells were treated with ehicle control (0.5% DMSO) or varying concentrations of HV-107 (250-8000 nM) for 24 or 48 h. Cell viability was measured using the CellTiter 96® AQueous One Solution Cell Proliferation Assay from Promega, as per manufacturer's instruction. Relative cell viability is presented for non-cancerous mammary epithelial cells MCF10A (FIG. 7) or metastatic breast cancer cells MDA-MB-231 or MDA-MB-435. N=3, each with three technical replicates; Error bars represent ±SEM; * p≤0.05.
as §3, with “Cells” for “FIG. 9. Effect of HV-118 on cell viability. Cells”, “MCF10A (FIG. 9)” for “(MCF10A)”

[3] = test system: non-cancerous mammary epithelial cells MCF10A; test: as above; type: cell-based, human; details: for toxicity / effect on viability of non-cancerous mammary epithelial cells, in words: MCF10A, at the concentrations tested
Description: as §2, §3, §4
as §3, with “Cells” for “FIG. 9. Effect of HV-118 on cell viability. Cells”, “MCF10A (FIG. 9)” for “(MCF10A)”

[4] = test system: MDA-MB-435 metastatic breast cancer cells; test: as above; type: cell-based, human; details: HV-107 24 or 48 h, HV-118 48 h
Description: as §2, §3, §4
as §3, with “Cells” for “FIG. 9. Effect of HV-118 on cell viability. Cells”, “MCF10A (FIG. 9)” for “(MCF10A)”

Structure (SMILES) | inhibition at 2 µM ([1]; 2000 nM) | inhibition at 1 µM (Akt; Homo sapiens, MDA-MB-435, 1000 nM) | inhibition of Akt phosphorylation (Akt; MDA-MB-231, 250-1000 nM) | fold increase in caspase 3 activity (caspase 3; MDA-MB-231, 48 h, 500 and 1000 nM) | fold increase in caspase 3 activity (caspase 3; MDA-MB-435, 48 h, 1000 nM) | concentration at which viability is significantly inhibited [2] | toxicity / effect on viability of non-cancerous mammary epithelial cells, in words ([3]; listed as HV-107) | toxicity to non-cancerous mammary epithelial cells, in words ([3]; at concentrations ≥1 μM) | concentration at which viability is significantly inhibited [4] | inhibition at 0.1 µM ([1]; 100 nM) | inhibition at 0.2 µM ([1]; 200 nM) | inhibition of Akt phosphorylation (Akt; both MDA-MB-231 and MDA-MB-435, 100 and 200 nM) | fold increase in caspase 3 activity (caspase 3; MDA-MB-231, 48 h, 100 and 200 nM) | fold increase in caspase 3 activity (caspase 3; MDA-MB-435, 72 h, 'the same level' as in MDA-MB-231) | toxicity / effect on viability of non-cancerous mammary epithelial cells, in words [3]
CCn1c2ccccc2c2cc(C(=O)Nc3cccnc3N3CCOCC3)ccc21 [Compound 11b, 9-Ethyl-9H-carbazole-3-carboxylic Acid (2-morpholin-4-yl-pyridin-3-yl)-amide] | 30 to 50% | 25% | 50-60% | 1.4-1.5 fold | 1.4-1.5 fold | ≥ 500 nM | minimal toxicity; also recorded: minimal or no inhibition | not toxic | ≥ 500 nM | – | – | – | – | – | –
CCn1c2ccccc2c2cc(Nc3cc(C)nc(Cl)n3)ccc21 [HV-118, (2-Chloro-6-methyl-pyrimidin-4-yl)-(9-ethyl-9H-carbazol-3-yl)-amine] | – | – | – | – | – | ≥ 50 nM | – | – | ≥ 50 nM | ~60% | ~80% | 40-60% | 1.6-1.8 fold | 1.6-1.8 fold | minimal effects; also recorded: minimal or no inhibition; also recorded: minimal toxicity
